Laboratory results reported in patent US20230107216A1, “PANTETHEINE DERIVATIVES AND USES THEREOF” (Comet Therapeutics, Inc., priority 2018, published 2023).
Read-outs that look alike come from different tables or passages of the source.

Legend:
[1] = test system: Methylmalonic Acidemia (MMA) primary fibroblasts Tsi 5224; assay: Mitochondrial respiration, XFe96 Extracellular Flux Analyzer (OCR/ECAR), MMA fibroblasts Tsi 5224; type: cell-based; settings: Homo sapiens, Fibroblast;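 as to Increase in Maximal Respiratory Capacity AUC: relative to vehicle DMSO control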
Summary of the method: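 Primary fibroblasts (20000 cells/well) were held 24 h in supplemented DMEM before Seahorse OCR/ECAR profiling. Compounds at 10 to 50 μM or 0.1% DMSO were injected after baseline, then oligomycin 1 μg/ml, FCCP, and rotenone/antimycin A 0.5 μM. Values were normalized to Hoechst nuclear counts, baselined to pre-compound, and expressed relative to vehicle.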

[2] = test system: Propionic Acidemia (PA) primary fibroblasts Tsi 6337; assay: Mitochondrial respiration, XFe96 Extracellular Flux Analyzer (OCR/ECAR), PA fibroblasts Tsi 6337; type: cell-based; settings: Homo sapiens, Fibroblast
Protocol: The effect of the compounds of the present disclosure on mitochondrial respiration was measured with a XFe96 Extracellular Flux Analyzer (Seahorse Bioscience, Agilent Technologies) and Oxygen consumption Rate (OCR) and Extracellular acidification rate (ECAR) determined.
Cell culture and treatments. Primary adherent fibroblasts were cultured in minimum essential medium (MEM) (Gibco, 25030081) supplemented with 2 mM L-Glutamine (Gibco, 25030081), 15% fetal bovine serum (FBS) (Gibco, 26400044) and 1% penicillin/streptomycin (Gibco, 5140122) at 37° C. and 5% CO2. Cells were collected for either passaging or experiment at ˜70-80% confluence. Cells were obtained by trypsinization and seeded at 20000 cells/well in cell culture microplates (Seahorse Bioscience, 101085-004) and allowed to adhere for 16 hours in culture media.
By profiling different primary cells and/or optimizing their culture media or environmental components one can select cell lines and/or conditions that are appropriate for the biological or disease model. In the present example, 24 hours prior to OCR and ECAR profiling, media was changed to Dulbecco's Modified Eagle Medium (DMEM, Agilent Seahorse 103575-100) with the appropriate supplements for the different primary cells (10 mM glucose, 2 mM L-glutamine, 1 mM pyruvate, 10% FBS; 1 mM glucose, 2 mM L-glutamine, 1 mM pyruvate, 10% FBS; 10 mM glucose, 10% FBS; 5 mM glucose 10% FBS; 1 mM glucose 10% FBS). Cells used in this example were: Propionic Acidemia (PA) (GM00371, GM03590 Coriell Institute for Medical Research, Tsi 6337, Tsi 4626, Tsi 3618 Trans-Hit Bio), Methylmalonic Acidemia (MMA) (GM01673, Coriell Institute for Medical Research, Tsi 5224 Trans-Hit Bio), Branched chain ketoacid dehydrogenase kinase (BCKDK) (GM00612, GM00649 Coriell Institute for Medical Research), Subnormal activation of pyruvate dehydrogenase complex (PDH) (GM01503 Coriell Institute for Medical Research), Very long-chain acyl-CoA dehydrogenase (VLCAD) (GM17475), Leigh Syndrome (LS) (GM03672, GM13411 Coriell Institute for Medical Research), Pyruvate Carboxylase Deficiency (PC) (GM00444 Coriell Institute for Medical Research), Glutaric Acidemia-I (GA) (GM10653), Friedreich's Ataxia (FXN) (GM04078 Coriell Institute for Medical Research, Huntington's disease (HD) (GM21756 Coriell Institute for Medical Research), Ornithine Transcarbamylase Deficiency (OTC) (GM12756 Coriell Institute for Medical Research), Kearns-Sayre Syndrome (KSS) (GM06225 Coriell Institute for Medical Research).
One hour before the assay, the cells were washed with freshly prepared unbuffered serum free-Seahorse XF Assay medium (Seahorse Bioscience, North America, USA, 103575-100) with the same supplements as for the previous 24 hour incubation.
After baseline measurements of OCR, cells were challenged with compounds of the present disclosure at different concentrations (10 to 50 μM) or vehicle (DMSO, 0.1%) and a post-compound baseline was recorded. OCR was measured after sequentially adding to each well 1 μg/ml oligomycin (inhibitor of ATP synthase Sigma-Aldrich, 753531), then maximal OCR was determined with carbonyl cyanide 4-(trifluoromethoxy) phenylhydrazone (FCCP, Sigma-Aldrich, C2920), (uncoupler of oxidative phosphorylation) and 0.5 μM of rotenone (Sigma-Aldrich, R8875) plus antimycin A (Sigma-Aldrich, A8674) (inhibitors of mitochondrial complex I and III) for determination of rotenone-antimycin insensitive respiration together with Hoechst for nuclear staining in situ when normalized to cell counts. After the analysis and nuclear staining, the XFp microplate was transferred to the Cytation 5, and the nuclear images were captured, the individual nuclei were identified and counted by BioTek Gen5 software. Data were expressed as pmol of O2 per minute and normalized by nuclear staining and baselined to pre-compound addition.
Assay conditions were as stated below.
Assay specifics on assay conditions are indicated below when readouts were normalized to cell counts. […]

[3] = test system: primary fibroblasts (healthy controls and PA, MMA, BCKDK, PDH, VLCAD, LS, PC, GA, VLCFA, KSS, FXN, HD); assay: Measurement of ROS (H2DCFDA) in primary fibroblasts; type: cell-based, human; settings: Homo sapiens, procedure Example 812
Protocol: Primary adherent fibroblasts were cultured in minimum essential medium (MEM) (Gibco, 25030081) supplemented with 2 mM L-Glutamine (Gibco, 25030081), 15% fetal bovine serum (FBS) (Gibco, 26400044) and 1% penicillin/streptomycin (Gibco, 5140122) at 37° C. and 5% CO2. Cells were collected for either passaging or experiment at ˜70-80% confluence. Cells were obtained by trypsinization and seeded in cell culture microplates either white plate (Thermo Fisher Scientific, 152028) for luminescent measurement or black plate (Thermo Fisher Scientific, 165305) for fluorescent based read out for different assays listed below. Cells were obtained by trypsinization and […] were seeded and allowed to adhere for 16-18 hours to have confluency around 70-80% in the cell well with culture media. After 24 hours prior to measurements (37° C., 5% CO2) media was changed to Dulbecco's Modified Eagle Medium (DMEM, Agilent Seahorse cat #103575-100) with the appropriate supplements as stated below.
Primary fibroblasts assayed were Healthy controls (GM00041, GM05659, GM23974 Coriell Institute for Medical Research), Propionic Acidemia (PA) (GM00371, GM03590 Coriell Institute for Medical Research, Tsi 6337 Trans-Hit Bio), Methylmalonic Acidemia (MMA) (GM01673, Coriell Institute for Medical Research, Tsi 5224, Tsi 4290 Trans-Hit Bio), Branched chain ketoacid dehydrogenase kinase (BCKDK) (GM00612, GM00649 Coriell Institute for Medical Research), Subnormal activation of pyruvate dehydrogenase complex (PDH) (GM01503 Coriell Institute for Medical Research), Very long-chain acyl-CoA dehydrogenase (VLCAD) (GM17475), Leigh Syndrome (LS) (GM03672, GM13411 Coriell Institute for Medical Research), Pyruvate Carboxylase Deficiency (PC) (GM00444 Coriell Institute for Medical Research), Glutaric Acidemia-I (GA), Impaired VLCFA oxidation (VLCFA) (GM13262), Kearns-Sayre Syndrome (KSS) (GM06225 Coriell Institute for Medical Research), Friedreich's Ataxia (FXN), Huntington's disease (HD) (GM21756 Coriell Institute for Medical Research). Next, cells were treated with compounds (10 μM) and ROS H2DCFDA (22 μM) dye for 2 hours in PA, MMA lines and for 24h for the other fibroblast lines. Kinetic read was started immediately with a i3x plate reader (492/527 nm) for 60 minutes.
A total dead cell count was performed as described in Example 817 and only alive cells were used for analysis.

[4] = test system: monocyte-derived M1 macrophages; assay: M1 differentiation assay (macrophage TNFα, IL6, IL10 ELISA, FACS); type: cell-based, human
Protocol: Monocytes were isolated by positive isolation with CD14+ microbeads (Miltenyi, 130-050-201). Monocytes were 99% viable and were 96% purity as analyzed by FACS and CD14+ (BD, 563561). 100,000 monocytes along with compounds at the dose of 10 and 50 μM were allowed to differentiate to macrophages with 10 ng/ml GMCSF (R&D, 15-GM-050/CF) in RPMI complete media (Invitrogen, 22400089) with 15% FBS (Hyclone SV30087.03) and 1% Penicillin-Streptomycin (Gibco, 15140-122). On day 2 and 4 half the media was refreshed with fresh GM-CSF and compounds at 10 and 50 μM dose. On day 6 the macrophages were matured with GMCSF, IFNγ (R&D 285-IF-100/CF) and LPS (Sigma, L6143) in the presence of 10 μM and 50 μM of compounds. After 24h, supernatant was collected for the measurement of TNFα (DKW, 1117202) IL6 (DKW, 1110602), IL10 (DKW, 1110003) by ELISA. Macrophages were detached gently on ice with EDTA (Invitrogen, 15575-038) and analyzed by FACS (BD LSR Fortessa, 853492). Cells were stained for live/dead dye, surface and intracellular markers with fixation/permeabilization solution (BD, 554714) and ALIVE/DEAD™ Fixable Near-IR Dead Cell Stain Kit (BD, L34976), mouse anti human CD86 APC (BD, 555660), mouse anti-human CD163 PE (BD, 556018), mouse anti-human CD68 FITC (BD, 562117) or isotype controls anti-mouse IgG1 κ PE (BD, 559320) and anti-mouse IgG1 κ APC (BD, Anti mouse IgG1 κ APC (BD, 55571). Mature M1 macrophages were defined as CD86+CD68+CD163− and increase in TNFα, IL6, and decrease in IL-10.

[5] = PA Tsi 6337, assay condition A (10 mM glucose, 2 mM L-glutamine, 1 mM pyruvate, 10% FBS), read-out: Increase in Maximal Respiratory Capacity AUC
[6] = FXN GM04078, Assay Condition C, read-out: Decreased ROS by at least 10%
[7] = FXN GM04078, Assay Condition C, read-out: Decreased ROS by at least 30%
[8] = MMA Tsi 5224, assay condition A (10 mM glucose, 2 mM L-glutamine, 1 mM pyruvate, 10% FBS), read-out: Increase in Maximal Respiratory Capacity AUC
[9] = PA Tsi 6337, assay condition D (1 mM glucose, 10% FBS), read-out: Increase in Maximal Respiratory Capacity AUC

CC(C)(COC(=O)CCC(=O)O)[C@@H](OC(=O)CCC(=O)O)C(=O)NCCC(=O)NCCSC(=O)CCC(=O)O [Compound 1233]
activation at 10 µM ([1]; MMA Tsi 5224, assay condition C (10 mM glucose, 10% FBS), read-out: Increase in Spare Capacity AUC): ≥ 50% | activation at 10 µM [2, 5]: ≥ 10% | inhibition at 10 µM ([3]; Fibroblast, BCKD GM00612, Assay Condition A, read-out: Decreased ROS by at least 10%): ≥ 10% | inhibition at 10 µM ([3]; Fibroblast, VLCFA GM13262, Assay Condition C, read-out: Decreased ROS by at least 30%): ≥ 30% | inhibition at 10 µM [3, 6]: ≥ 10% | inhibition at 10 µM [3, 7]: ≥ 30%

CC[C@H](O)CC(=O)SCCNC(=O)CCNC(=O)[C@H](O)C(C)(C)CO [Compound 1249, (2R)-2,4-dihydroxy-N-{2-[(2-{[(3S)-3-hydroxypentanoyl]sulfanyl}ethyl)carbamoyl]ethyl}-3,3-dimethylbutanamide]
activation at 10 µM [2, 5]: ≥ 10% | inhibition at 10 µM ([3]; Fibroblast, VLCAD GM17475, Assay Condition C, read-out: Decreased ROS by at least 10%): ≥ 10% | inhibition at 10 µM ([3]; Fibroblast, VLCAD GM17475, Assay Condition C, read-out: Decreased ROS by at least 30%): ≥ 30% | inhibition at 10 µM [3, 6]: ≥ 10% | inhibition at 10 µM [3, 7]: ≥ 30%

CC(C(=O)SCCNC(=O)CCNC(=O)[C@H](O)C(C)(C)CO)[C@H](C)O (stereo partly drawn) [Compound 1248, (2R)-2,4-dihydroxy-N-{2-[(2-{[(3S)-3-hydroxy-2-methylbutanoyl]sulfanyl}ethyl)carbamoyl]ethyl}-3,3-dimethylbutanamide]
activation at 10 µM [1, 8]: ≥ 10% | activation at 10 µM [2, 5]: ≥ 10%

COC(=O)CC(O)(CC(=O)OC)C(=O)SCCNC(=O)CCNC(=O)[C@H](O)C(C)(C)CO [Compound 418]
activation at 10 µM [2, 9]: ≥ 10% | % decrease in Live Macrophage Cells ([4]; 50 uM): ≥20% | activation at 10 µM ([4]; Homo sapiens, Macrophage, 10 uM, read-out: % Increase in IL-10 Secretion): ≥ 30% | inhibition at 10 µM ([4]; Homo sapiens, Macrophage, 10 uM, read-out: % decrease in Macrophage IL-6 Secretion): ≥ 30% | inhibition at 10 µM ([4]; Homo sapiens, Macrophage, 10 uM, read-out: % decrease in Macrophage TNFα Secretion): ≥ 30%

COC(=O)C(=O)SCCNC(=O)CCNC(=O)[C@H](O)C(C)(C)COP(=O)(O)O [Compound 60, Methyl (R)-2-((2-(3-(2-hydroxy-3,3-dimethyl-4-(phosphonooxy)butanamido)propanamido)ethyl)thio)-2-oxoacetate]
activation at 10 µM ([1]; MMA Tsi 5224, assay condition D (1 mM glucose, 10% FBS), read-out: Increase in Maximal Respiratory Capacity AUC): ≥ 10% | activation at 10 µM [2, 9]: ≥ 10% | inhibition at 10 µM ([3]; Fibroblast, KSS GM06225, Assay Condition C, read-out: Decreased ROS by at least 10%): ≥ 10% | inhibition at 10 µM ([3]; Fibroblast, KSS GM06225, Assay Condition C, read-out: Decreased ROS by at least 30%): ≥ 30%

CC(C)(CO)[C@@H](O)C(=O)NCCC(=O)NCCSC(=O)[C@@H](N)CC(=O)O [Compound 390]
activation at 10 µM [1, 8]: ≥ 10% | activation at 10 µM ([2]; PA Tsi 6337, assay condition D (1 mM glucose, 10% FBS), read-out: Increase in Spare Capacity AUC): ≥ 10%

COC(=O)CCC(=O)SCCNC(=O)CCNC(=O)[C@H](O)C(C)(C)COC(=O)CN [Compound 1228]
activation at 10 µM [1, 8]: ≥ 10% | activation at 10 µM [2, 5]: ≥ 10% | activation at 10 µM [2, 9]: ≥ 10%
